Activity calls are given as the source filed them. The calls are words filed in the database; no cut-off is given here.
Columns and labels:
Jurkat = experiment: Molecular glue degradation (MGD) activity at BRD4 in DCAF16 knock out human Jurkat cells assessed as BRD4 degradation at 0.01 to 10 uM incubated for 6 hrs by Nano-Glo HiBiT assay; type: cell-based; conditions: dose 0.01-10 µM
[1] = Stability of compound in PBS assessed as half lives incubated for 1 hrs by LC-MS/MS analysis; type: physicochemical
K562 = experiment: Induction of eGF-tagged BRD4 BD2 degradation in DCAF16 knock out human K562 cells at 1 uM incubated for 16 hrs by Western blot analysis; type: cell-based
[2] = target: T1, DDB1- and CUL4-associated factor 16/Bromodomain-containing protein 4 (Homo sapiens, UniProt O60885+Q9NXF7); experiment: Molecular glue degradation (MGD) activity at DCAF16/BRD4 in human K562 cells incubated for 16 hrs; type: cell-based
[3] = Glutathione reactivity in PBS buffer assessed as half lives incubated for 1 hrs by LC-MS/MS analysis; type: physicochemical
[4] = target: T1, DDB1- and CUL4-associated factor 16/Bromodomain-containing protein 4; experiment: Molecular glue degradation (MGD) activity at DCAF16/BRD4 in human K562 cells assessed as maximum degradation incubated for 16 hrs by fluorescent stability reporter assay relative to control; type: cell-based
[5] = target: T1, DDB1- and CUL4-associated factor 16/Bromodomain-containing protein 4; experiment: Potency index, ratio of GNE011 MIC to test compound MIC for molecular glue degradation (MGD) activity at DCAF16/BRD4 BD2 in human K562 cells assessed as maximum degradation at 10 uM incubated for 16 hrs by fluorescent stability reporter assay; type: cell-based
[6] = target: T1, DDB1- and CUL4-associated factor 16/Bromodomain-containing protein 4; experiment: Molecular glue degradation (MGD) activity at DCAF16/BRD4 BD2 in human K562 cells assessed as maximum degradation at 10 uM incubated for 16 hrs by fluorescent stability reporter assay relative to control; type: cell-based
[7] = target: T1, DDB1- and CUL4-associated factor 16/Bromodomain-containing protein 4; experiment: Molecular glue degradation (MGD) activity at DCAF16/ BRD4 BD2 in human K562 cells transfected with […] incubated for 16 hrs by fluorescent stability reporter assay; type: cell-based; conditions: dose 0.001-10 µM
[8] = target: T1, DDB1- and CUL4-associated factor 16/Bromodomain-containing protein 4; experiment: Binding affinity to His-tagged BRD4 BD2 (unknown origin) assessed as ternary complex formation at 0.001 to 100 uM incubated for 1 to 24 hrs by TR-FRET assay; type: protein assay; conditions: dose 0.001-100 µM, time 1-24 hrs
[9] = target: T1, DDB1- and CUL4-associated factor 16/Bromodomain-containing protein 4; experiment: Molecular glue degradation (MGD) activity at DCAF16/BRD4 in human K562 cells assessed as covalent-engagement of DCAF16 by measuring BRD4 degradation at 1 uM preincubated for 4 hrs followed by compound addition measured after 24 hrs (no washout experiment) by Western blot analysis; type: cell-based; conditions: time 28.0 hrs
[10] = target: T1, DDB1- and CUL4-associated factor 16/Bromodomain-containing protein 4; experiment: Molecular glue degradation (MGD) activity at DCAF16/BRD4 in wild type human Jurkat cells assessed as BRD4 degradation at < 100 nM incubated for 6 hrs by Nano-Glo HiBiT assay; type: cell-based
[11] = target: T1, DDB1- and CUL4-associated factor 16/Bromodomain-containing protein 4; experiment: Molecular glue degradation (MGD) activity at DCAF16/BRD4 in wild type human Jurkat cells assessed as BRD4 degradation at 10 nM incubated for 6 hrs by Nano-Glo HiBiT assay; type: cell-based
[12] = target: T1, DDB1- and CUL4-associated factor 16/Bromodomain-containing protein 4; experiment: Binding affinity to DCAF16/eGF-tagged BRD4 BD2 (unknown origin) assessed as ternary complex formation by measuring maximum TR-FRET ratio at 100 uM incubated for 1 hrs by TR-FRET assay; type: protein assay
[13] = target: T1, DDB1- and CUL4-associated factor 16/Bromodomain-containing protein 4; experiment: Binding affinity to DCAF16/eGF-tagged BRD4 BD2 (unknown origin) assessed as ternary complex formation by measuring maximum TR-FRET ratio at 100 uM incubated for 24 hrs by TR-FRET assay; type: protein assay

T1 sequence (Q9NXF7 whole entry, looked up, other chains not shown): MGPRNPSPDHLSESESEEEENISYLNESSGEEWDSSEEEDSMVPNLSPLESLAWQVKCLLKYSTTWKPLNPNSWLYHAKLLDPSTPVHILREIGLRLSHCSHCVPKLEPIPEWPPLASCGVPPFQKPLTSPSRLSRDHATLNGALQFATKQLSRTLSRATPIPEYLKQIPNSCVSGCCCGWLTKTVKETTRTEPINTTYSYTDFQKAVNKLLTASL

Q: Which results are given for Cc1sc2c(c1C)C(c1ccc(C#CC(N)=O)cc1)=N[C@@H](CC(=O)OC(C)(C)C)c1nncn1-2?
A: Activity (Jurkat): inactive; half-life [1]: > 12.5 h; Activity (K562): inactive; DC50 [2]: 51 nM; half-life [3]: 6.33 h; Emax [4]: 69%

Q: With C=CS(=O)(=O)Nc1ccc(C2=N[C@@H](CC(=O)OC(C)(C)C)c3nncn3-c3sc(C)c(C)c32)cc1 as the molecule, how does the Activity (Jurkat) read?
A: inactive

Q: What about the half-life [1] of the same molecule?
A: > 12.5 h

Q: What about the Activity (K562) of the same molecule?
A: inactive

Q: And the DC50 [2]?
A: 1 nM

Q: What about the fold change (FC) [5] of the same molecule?
A: 1000

Q: What about the Emax [6] of the same molecule?
A: 95%

Q: And the half-life [3]?
A: > 12.5 h

Q: With Cc1sc2c(c1C)C(c1ccc(/C=C/C(N)=O)cc1)=N[C@@H](CC(=O)OC(C)(C)C)c1nncn1-2 as the molecule, how does the Activity [7] read?
A: inactive

Q: And the half-life [1]?
A: > 12.5 h

Q: And the Activity [8]?
A: inactive

Q: What about the half-life [3] of the same molecule?
A: > 12.5 h

Q: What about the Activity [9] of the same molecule?
A: Active

Q: With Cc1sc2c(c1C)C(c1ccc(/C=C/C=O)cc1)=N[C@@H](CC(=O)OC(C)(C)C)c1nncn1-2 as the molecule, how does the Activity (Jurkat) read?
A: inactive

Q: And the half-life [1]?
A: > 12.5 h

Q: What about the Activity (K562) of the same molecule?
A: inactive

Q: What about the DC50 [2] of the same molecule?
A: 64 nM

Q: And the half-life [3]?
A: 6.92 h

Q: What about the Emax [4] of the same molecule?
A: 75%

Q: What about the Activity [10] of the same molecule?
A: > 90%

Q: What does the source list for Cc1sc2c(c1C)C(c1ccc(C#CCO)cc1)=N[C@@H](CC(=O)OC(C)(C)C)c1nncn1-2?
A: Activity [8]: inactive; DC50 [2]: > 10000 nM; Emax [4]: 10%

Q: For Cc1sc2c(c1C)C(c1ccc(NC(=O)CCl)cc1)=N[C@@H](CC(=O)OC(C)(C)C)c1nncn1-2, which Activity (Jurkat) is on record?
A: inactive

Q: What about the half-life [1] of the same molecule?
A: > 12.5 h

Q: What about the DC50 [2] of the same molecule?
A: 8 nM

Q: What about the Emax [6] of the same molecule?
A: 56%

Q: What about the half-life [3] of the same molecule?
A: 8.85 h

Q: And the Activity [10]?
A: > 90%

Q: For Cc1sc2c(c1C)C(c1ccc(C#CC=O)cc1)=N[C@@H](CC(=O)OC(C)(C)C)c1nncn1-2, which Activity (Jurkat) is on record?
A: inactive

Q: And the half-life [1]?
A: > 12.5 h

Q: And the Activity [11]?
A: 73%

Q: And the Activity (K562)?
A: inactive

Q: And the Ratio [12]?
A: 2.12

Q: And the Ratio [13]?
A: 0.28

Q: What about the DC50 [2] of the same molecule?
A: 703 nM

Q: And the half-life [3]?
A: 8.83 h

Q: And the Emax [4]?
A: 69%

Q: And the Activity [10]?
A: > 90%
